Assay results published in US20040254131A1, “Method for prevention or treatment of diseases or disorders related to excessive formation of vascular tissue or blood vessels” (priority 2003, published 2004).

How the values were obtained:
[1] = tested on: rat NPY Y2 mRNA; test: Hyperoxia/ischemia-induced retinal neovascularization (retinopathy) in newborn rats; format: in vivo; conditions: for retinal capillary vessel formation in fluorescein images (FIG. 3): fluorescence microscopy of flat-mounted retinas; for Mean ± SD of quantitated neovascularization (amount of retinal vessels crossed by a constant length line): newborn Sprague Dawley rats, cyclic hyperoxia 40%/80% then room air, intraperitoneal treatment, eyes collected at age 20 days
Excerpt: The present study was undertaken to determine the impact of NPY Y2 receptor targeted intervention on neovascularization and development of retinopathy. Development of retinopathy was induced to newborn rats by cyclic hyperoxia and following relative ischemia-induced retinal neovascularization. Hyperoxemia is toxic to developing retinal vessels causing damage and hypoxia in the retina. After moving to normal air, relative hypoxia follows further promoting neovascularization of the retina.
Three groups of rat puppies were subjected for different treatments; 1) vehicle, 2) NPY Y2 receptor targeted antisense oligonucleotide sequence, and 3) scramble oligonucleotide sequence containing the same oligonucleotides as NPY Y2 receptor targeted antisense oligonucleotide sequence. The treatments were administered intraperitoneally. The retinal vessels were investigated and retinopathic changes were compared between treatment groups.
Retinopathy was assessed after injection of fluorescent-labelled dextran to the circulation. The eyes were flat-mounted on slides and the retinal vessels were visualized and investigated by fluorescence microscopy. Statistical differences were calculated between the study groups.
Study protocol was approved by the Joint Ethics Committee of Turku University. Development of retinopathy was induced to newborn rats (Sprague Dawley) by cyclic hyperoxia and following relative ischemia. Hyperoxia is toxic to developing retinal vessels causing damage and hypoxia in the retina, which induces neovascularization. After moving to normal air, relative hypoxia follows further promoting neovascularization of the retina. Hypoxia is one of the major causes of retinal neovascularization in human retinopathies also. The newborn rats were kept in a hyperoxic incubator with their mothers. Retinal neovascularization was induced simultaneously for all three groups of puppies. One treatment group consisted originally of 7 puppies, which underwent cyclic hyperoxia at the age of 3 days, continued until at the age of 14 days and remained in normal room air from the age of 14 to 17 days. The amount of oxygen inside the incubator was kept at 40% and 80% in 12 hour cycles for 10 days (days from 3 to 13).
The three groups of puppies were subjected for different treatments; 1) plain vehicle, 2) NPY Y2 receptor targeted antisense oligodeoxynucleotide sequence (5′-CCTCTGCACCTAATGGGCCC -3′ (SEQ ID NO:38), containing 20 thioate modified bases) diluted in vehicle and 3) scramble oligodeoxynucleotide sequence containing the same deoxynucleotides as NPY Y2 receptor targeted antisense oligodeoxynucleotide sequence but in a random order (5′-CCATGGTAATCCGCCGCTCC-3′ (SEQ ID NO:39), containing 20 thioate modified bases) diluted in vehicle. The treatments were administered intraperitoneally. The retinal vessels were investigated and retinopathic changes were compared between treatment groups. The used NPY Y2 receptor targeted antisense deoxynucleotide sequence was designed complementary to next 20 bases from NPY Y2 gene transcription initiation codon (ATG).
At the age of 20 days, rats were decapitated and eyes were collected. Retinopathy and retinal neovascularization was assessed after an injection of fluorescent-labelled dextran to the circulation trough heart puncture. One eye from each puppy was used for visualization of retinal vessels. The eyes were flat-mounted on slides and the retinal vessels were visualized and investigated by fluorescence microscopy. Pictures of retinas were acquired using a Leica DMR/DC100 microscope and Leica DC Wiever software.
The amount of retinal capillaries was analyzed by counting the amount of vessels crossed by a constant length line using plot profile analysis (Image-J 2.6 program). Each retina was analyzed in 3-5 representative areas and the mean values were used for further statistical analysis. Only unfolded retinal preparations were used in order to avoid artificial images of neovascularization. […]

[2] = tested on: hTERT-HUVEC cells; test: Endothelial tube formation assay after liposomal transfection; format: cell-based, human; conditions: for mean ±SEM tube number/well, single nucleotide assay 4A / mean ±SEM tube number/well, single nucleotide assay 4b: oligonucleotide 1 μM, DOTAP/DOPE, 4 h transfection, 3 h on Matrigel; for mean ±SEM tube number/well, single nucleotide assay 4A: non-treated control 60±1.8; for mean ±SEM tube number/well, single nucleotide assay 4b: repeated set, non-treated control 58.0±2.9
Method: A further experiment was carried out in order to study the effect of single antisense molecules and their combinations in the prevention of endothelial cell tube formation by immortal human umbilical vein endothelial cells (hTERT-HUVECs).
Immortal human umbilical vein endothelial cells (hTERT-HUVECs) were obtained from Geron Corporation (Menlo Park, Calif., U.S.A.). hTERT-HUVECs were maintained on a gelatin-coated 100-mm dishes (Corning Costar, N.Y., U.S.A) in growth medium, composed of M199 medium (Gibco, Paisley, Scotland) supplement with 15% (v/v) heat-inactivated fetal bovine serum (Gibco BRL), 2 mM L-glutamine (Gibco BRL), 100 units/ml penicillin/streptomycin (Gibco BRL), 10 units/ml heparin (Sigma) and 20 μg/ml endothelial cell growth factor (Roche Biomolecules) at 37° C. in a humified incubator with 5% CO2 atmosphere. Experiments were performed with cells between passages 20 and 24.
The following phosphorothioate oligonucleotides were synthesized: human neuropeptide Y2-receptor mRNA antisense molecules
N-(1-(2,3-dioleoyloxy)propyl)-N,N,N-trimethyl ammonium methylsulfate (DOTAP) and 1,2-dioleoyl-3-phosphatidylethanolamine (DOPE) were purchased from Avanti Polar Lipids. Cationic liposomes composed of DOTAP/DOPE (1:1 by mol) were prepared as previously described (Ruponen et al., 2001 (43)).
hTERT-HUVECs (5×10^4 cells/well) were seeded onto gelatin-coated 48-multiwell plates (Corning Costar, N.Y., U.S.A) and incubated overnight. For transfection, the growth medium was replaced with 400 μl of transfection medium (M199 medium supplement with 2 mM L-glutamine and 100 units/ml penicillin/streptomycin). Oligonucleotides (final concentration 1 μM) and DOTAP/DOPE liposomes in sterile water were first diluted in MES-HEPES buffered saline (50 mM MES, 50 mM HEPES, 75 mM NaCl, pH 7.2) and then mixed together at a charge ratio +1. The transfection mixture was allowed to stand at room temperature for 20 min and the oligonucleotide/liposome complexes (100 μl) were added dropwise to each well.
After transfection for 4 h hTERT-HUVECs were harvested after trypsin treatment, suspended in growth medium (200 μl) and seeded in growth factor-reduced Matrigel (BD Biosciences) coated 96-well plates (Corning Costar, N.Y., U.S.A). After incubation for 3 h cells were fixed in 4% paraformaldehyde. The formation of tubular structures in each well (7 fields/well) was digitally captured using a Nicon Eclipse TE300 Inverted Microscope (Nicon, Tokyo, Japan) equipped with a Nicon F-601 digital camera (Nicon, Tokyo, Japan). Photographs were taken at 4× magnification.
The efficacy in prevention of formation of tubular structures by hTERT-HUVECs of all 5 synthesized antisense molecules were compared against each others alone and in combination. The number of tubular structures was analyzed by using Adobe Photoshop 5.5 (Adobe Systems Inc., San Jose, Calif., U.S.A) and the results were expressed as means ±SEM of three independent experiments. A set of three experiments was repeated.

5′-CCTCTGCACCTAATGGGCCC -3′ (antisense CCTCTGCACCTAATGGGCCC; DNA, all phosphorothioate, methylation of C not given here; listed as Rattus sp.) [Y2-antisense, NPY Y2 receptor targeted antisense oligodeoxynucleotide corresponding to rat NPY Y2 mRNA]
retinal capillary vessel formation in fluorescein images (FIG. 3) [1]: regular and continuous | Mean ± SD of quantitated neovascularization (amount of retinal vessels crossed by a constant length line) [1]: 24.58 ± 0.84 | mean difference in neovascularization compared to vehicle treatment group ([1]; post hoc Tukey HSD, p<0.001, 95% CI 2.48-8.33): 5.40 | mean difference in neovascularization compared to scramble treatment group ([1]; post hoc Tukey HSD, p<0.001, 95% CI 3.76-9.31): 6.53

5′-CCATGGTAATCCGCCGCTCC-3′ (CCATGGTAATCCGCCGCTCC; DNA, all phosphorothioate, methylation of C not given here; listed as Rattus sp.) [Scramble, scramble oligodeoxynucleotide, same deoxynucleotides as the Y2 antisense in random order, reference compound]
retinal capillary vessel formation in fluorescein images (FIG. 3) [1]: irregular and disrupted | Mean ± SD of quantitated neovascularization (amount of retinal vessels crossed by a constant length line) [1]: 31.12 ± 0.93 | difference in retinal neovascularization versus vehicle treatment group ([1]; post hoc comparison): no difference

5′-GTTTGTGGCCCGTATTGTTCC-3′ (DNA, all phosphorothioate, methylation of C not given here; listed as Homo sapiens) [AS-2, human neuropeptide Y2-receptor mRNA antisense molecule]
mean ±SEM tube number/well, single nucleotide assay 4A [2]: 70.3±11.3 tube number/well | mean ±SEM tube number/well, single nucleotide assay 4b [2]: 75.0±7.5 tube number/well

5′-CCTCTGCACCTATTGGACCC-3′ (DNA, all phosphorothioate, methylation of C not given here; listed as Homo sapiens) [AS-1, human neuropeptide Y2-receptor mRNA antisense molecule]
mean ±SEM tube number/well, single nucleotide assay 4A [2]: 44.0±5.6 tube number/well | mean ±SEM tube number/well, single nucleotide assay 4b [2]: 54.3±10.1 tube number/well

5′-CCCAGGTTATCCACGTCTCC-3′ (DNA, all phosphorothioate, methylation of C not given here; listed as Homo sapiens) [AS-1 control, control oligonucleotide for AS-1, reference compound]
mean ±SEM tube number/well, single nucleotide assay 4A [2]: 49.3±8.2 tube number/well | mean ±SEM tube number/well, single nucleotide assay 4b [2]: 57.0±7.0 tube number/well

5′-GGCCACTGTTCTTTCTGACC-3′ (DNA, all phosphorothioate, methylation of C not given here; listed as Homo sapiens) [AS-3, human neuropeptide Y2-receptor mRNA antisense molecule]
efficacy in prevention of tubular structures formation by hTERT-HUVECs (ranking in words) ([2]; FIGS. 4A-4D): best efficacy | mean ±SEM tube number/well, single nucleotide assay 4A [2]: 28±7.1 tube number/well | mean ±SEM tube number/well, single nucleotide assay 4b [2]: 23.0±6.7 tube number/well
